# Test results published in BindingDB's records for PubMed 32853683 (Peking Union Medical College, 2020).
# pIC50: −log10 of the molar value.
# Columns and labels:
# [1] = Inhibition of trypsin-like activity of human 20S proteasome beta 2
# [2] = Inhibition of caspase-like activity of human 20S proteasome beta 1
pIC50 [1],pIC50 [2],SMILES
< 4.30,< 4.30,CCCc1ccc(OCC(=O)N(Cc2cccc(-c3cccnc3)c2)C(C)C)cc1
< 4.30,< 4.30,CCCc1ccc(OCC(=O)N(Cc2nc(-c3ccco3)no2)C(C)C)cc1
< 4.30,< 4.30,CCCc1ccc(OCC(=O)N(Cc2nc(-c3cccs3)no2)C(C)C)cc1
< 4.30,< 4.30,CCCc1ccc(OCC(=O)N(Cc2nc(-c3cccnc3)no2)C(C)C)cc1
